Consider seven substances from patent US10905782B2, “Compositions for enhancing transport of molecules into cells” (priority 2003, dated 2021).

Data set [1] concerns HeLa pLuc705 derived from HeLa S3, HeLa, NIH3T3, and Jurkat. Nature of the data set: Cellular uptake by fluorescent microscopy in live cells. The data set is classed as cell-based. The procedure: HeLa pLuc/705 (Kang, Cho et al. 1998) is a HeLa S3 cell line stably transfected with a plasmid carrying the luciferase coding sequence interrupted by a mutated human β-globin intron 2 (Gene Tools, Philomath, Oreg.). Other cell lines were obtained from ATCC (Manassas, Va.). The PMO's were 3′-labeled with fluorescein as described in Example 1. To avoid artifacts, all fluorescent images were taken from live cells, and no fixative agent or mounting media were used.
Cells were plated onto a 48-well plate. The next day the conditioned medium was removed and the test substances in fresh medium were added to the wells. After incubation, the cells were washed with phosphate-buffered saline (PBS) three times and visualized directly in the culture medium with a Nikon Diaphot 300 inverted microscope. Images were captured with an Olympus digital camera connected to a computer using MagnaFire software (Optronics, Goleta, Calif.).

Data set [2] relates to 705 splice site (luciferase gene interrupted by a human β-globin intron mutated at nucleotide 705). The experiment in a line: pLuc/705 splice correction assay: luciferase production in HeLa pLuc/705 cells. The data set is classed as cell-based. How it is done: The data described below was obtained by targeting a β-globin splice correction sequence fused to luciferase.
Other cell lines were obtained from ATCC (Manassas, Va.). […] All assays were carried out with exponentially growing cells in culture media containing 10% fetal bovine serum (FBS) unless otherwise specified.
This assay measures the ability of steric blocking oligomers to enter cells and nuclei, block incorrect splicing of pre-mRNA, and thus cause expression of a reporter gene. It avoids the confusion of cytotoxicity with activity that can affect down-regulation assays, as cells must be able to carry out RNA processing and translation to produce a signal. Because oligomers must enter cells and cell nuclei to produce a signal in the assay, it is very useful for measuring uptake and effectiveness of delivery moieties.
The time course of the uptake of various transporter-PMO-fluorescein conjugates, as described above, in HeLa pLuc/705 cells was studied by fluorescence spectroscopy. Experiments were generally run in triplicate. According to the general procedure, culture medium containing the test substance at a specified concentration was added to HeLa pLuc/705 cells plated in a 48-well plate. After incubation, at each time point, the cells were washed with PBS three times, and the cell lysate was collected as described under “Fluorometry”, above. The amount of functional luciferase produced was determined by mixing 30 μl of cell lysate and 50 μl of Luciferase Assay Reagent (LAR) (Promega, Wis.) and measuring the light production using a Flx 800 microplate fluorescence/luminescence reader (Bio-tek, Vermont). The relative light units were normalized to μg of protein determined by the bicinchoninic acid (BCA) method, following the manufacturer's procedure (Pierce, Ill.).

In the next data set the test system is HeLa pLuc705 cells. Nature of the data set: Fluorometry: association (adsorption) of fluorescein-labeled conjugate with cells. The data set is classed as cell-based, human. The procedure:
HeLa pLuc/705 cells plated in a 48 well plate were treated with medium containing test substance. After incubation, cells were washed with PBS three times.
To measure the sum of membrane-bound and internalized fluorescence, cells were lysed directly in the wells by addition of 100 μl of cell lysis buffer (Promega, Madison, Wis.) to each well. Cell lysates were collected. The total fluorescence was determined by mixing 20 μl of cell lysate and 80 μl of 0.1 M Na2CO3 (pH 11) and measuring with an Flx 800 microplate fluorescence-luminescence reader with excitation at 485 nm and emission at 524 nm.
To measure internalized conjugate, the membrane-bound conjugate was removed by trypsinization, as follows. Trypsin (100 μl, 10%, Hyclone, Logan, Utah) was added to each well and incubated for 6 minutes at 37° C., followed by addition of 300 μl of culture media. The cells were spun down and washed with PBS, then lysed with 100 μl cell lysis buffer. The fluorescence of the cell lysate was measured as described above.

The test system of the next data set is trypsin. Nature of the data set: Degradation of conjugate by trypsin. The data set is classed as in vitro ADME. To be noted: data not shown.
A further data set has as its target Proteinase K (Parengyodontium album, UniProt P06873). The experiment in a line: Protease digestion of peptide-PMO conjugates, MALDI-TOF analysis. The data set is classed as in vitro ADME. To be noted: 37° C., 5 minutes or 2 hours, tested as 705-FL conjugates. The procedure: Experiments to measure the resistance of peptide-PMO conjugates to protease digestion were performed as follows. Proteinase K (10 units) was placed in 0.1 ml of 50 mM Tris-HCl (pH 7.2), 5 mM CaCl2 buffer and 40 μg of peptide-PMO (R9F2C-705) conjugate (SEQ ID NO:43-SEQ ID NO:1) was added. After either 5 minutes or 2 hours at 37 degrees C., samples were frozen on dry ice until analysis by MALDI TOF mass spectroscopy.
The protease sensitivity of the transport peptides was also investigated, as follows. Each of the peptide-PMO conjugates R9F2-705-FL (SEQ ID NO:13-SEQ ID NO:1) and (RAhxR)4-705-FL (SEQ ID NO:34-SEQ ID NO:1) was mixed with Proteinase K in 100 μl of 50 mM Tris 5 mM CaCl2 buffer. The sample was incubated at 37° C. for 5 minutes or, in a separate analysis, 2 hours, then placed onto dry ice until analysis by MALDI-TOF mass spectroscopy. The results are shown in FIGS. 25A and 25B and FIGS. 26A and 26B, respectively.

Data set [3] has as its system 705 splice site (luciferase gene interrupted by a human β-globin intron mutated at nucleotide 705). To be noted: 18-mer antisense PMO conjugate, Moulton, Hase et al. 2003; cited from earlier work.

Square brackets hold non-standard residues; d marks the D form. Ends that are not written are not given here. {FL} = fluorescein label; Ahx = NCCCCCC(=O)O

Chain of Proteinase K (P06873 106-384): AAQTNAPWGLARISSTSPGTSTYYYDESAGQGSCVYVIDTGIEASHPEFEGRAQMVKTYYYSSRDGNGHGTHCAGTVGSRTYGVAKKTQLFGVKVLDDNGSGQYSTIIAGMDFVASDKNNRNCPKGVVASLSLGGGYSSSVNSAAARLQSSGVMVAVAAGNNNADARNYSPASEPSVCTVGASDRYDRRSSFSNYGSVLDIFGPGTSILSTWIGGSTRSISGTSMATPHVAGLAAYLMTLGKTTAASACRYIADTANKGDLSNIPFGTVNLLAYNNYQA

As to “R9F2C-PMO: covalent conjugate of PMO 705 and transport peptide R9F2 via cysteine; fluorescein-labeled in uptake studies (chain RRRRRRRRRFFC; antisense cctcttacctcagttaca; cysteine linkage; PMO; fluorescein; synthetic transport peptide; synthetic oligomer)”, the pattern of fluorescence entry in data set [1] (HeLa S3 cells) was “less intense cytosolic diffuse fluorescence”; in data set [1] (HeLa cells) it was “mostly diffused fluorescence”; in data set [1] (Jurkat cells) it was “lowest level of fluorescence”; in data set [1] (NIH3T3 cells), “very bright and diffused cytosolic and nuclear fluorescence”. For the same substance, in data set [1] (HeLa, NIH3T3 or HeLa pLuc/705 cells, 20 minutes treatment, DHE nuclear stain), the “location of fluorescence in cells” value is “Diffuse green fluorescence was seen in both cytoplasm and nucleus”. Moreover, the “cells in which fluorescence was observed” value in data set [1] (all four cell lines, live cells) turned out to be 100%. Also, the “incubation time after which luciferase was produced” value in data set [2] (splice-correction assay monitored over time) came out at 120 min. Besides, in the data set with HeLa pLuc705 cells (0.1 to 5 μM, 70 minutes), the “fluorescence of cells incubated at 37° C. compared with 17° C.” value was “similar”. For the same substance, the “time at which cell fluorescence reached maximum intensity” value in the data set with HeLa pLuc705 cells (HeLa pLuc705 cells, 1 μM, 900 minute study period) lay within 30 to 45 min. The “adsorption with increasing concentration” value in the data set on HeLa pLuc705 cells (increase between 0.1-1 μM, not between 1-5 μM) is “saturable”. The “sensitivity to degradation by trypsin” value in the data set with trypsin is on record as “sensitive to degradation by trypsin”.
For the substance “5′-CCT CTT ACC TCA GTT ACA-fluorescein-3′ (antisense CCTCTTACCTCAGTTACA; all phosphorodiamidate morpholino (PMO), 3' {FL}; further chemistry not fully specified) [705-FL, 3′-fluorescein labeled PMO 705]”, in data set [1] (all four cell lines, live cells, 3′-fluorescein labeled PMO), the “fluorescent images of treated cells” value was “essentially devoid of fluorescence”.
As to “RAhxRRAhxRRAhxRRAhxR (R[Ahx]RR[Ahx]RR[Ahx]RR[Ahx]R) [(RAhxR)4, transport peptide with 6-aminohexanoic acid; results under this label come from its PMO conjugates]”, in the data set with Proteinase K, the “resistance to proteinase K degradation” value is “resistant to proteinase K degradation”.
Take “R9F2—C: transport peptide R9F2 with C-terminal cysteine, SEQ ID NO:43 (RRRRRRRRRFFC; synthetic transport peptide)”: the “resistance to proteinase K degradation” value with Proteinase K is given as “not resistant”.
Turning to RRRQRRKKR [rTat], the “inhibition of aberrant splicing” value in data set [3] is given as “inhibit aberrant splicing”.
Regarding “RRRRRRRRRFF [R9F2, transport peptide; results under this label are for its PMO conjugates]”, the “suppression of aberrant splicing compared with rTat(57-49) and R9 conjugates” value in data set [2] (25 μM, 6 hrs incubation, PMO 705 linked via cysteine) is on record as “much more effective in suppressing aberrant splicing”.
Turning to “R9F2C-SBAP-705-F: R9F2C-705-FL conjugate with SBAP thio-ether linker (chain RRRRRRRRRFFC; antisense cctcttacctcagttaca; SBAP thioether linker; PMO; fluorescein; synthetic transport peptide; synthetic oligomer)”, the RLU/ug protein range in data set [2] (HeLa pLuc705 cells, 24 hrs incubation, R9F2C-PMO (705-FL) conjugates with different linkers, range in brackets) is 98 (3.2) RLU/ug protein.
